According to patent US10988477B2 (Merck Patent GmbH, priority 2018, dated 2021):

Assays:
[1] = molecular target: GCN2 kinase (Homo sapiens, UniProt Q9P2K8); experiment: GCN2 enzyme inhibition assay (Transcreener ADP2 fluorescence polarization); format: biochemical; details: 280 μM ATP; for IC50: compounds of Formula IV
Method in brief: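 Human GCN2 (4 nM) preincubated 10 min with compound (0–8 μM) and 200 μM (RS)7 peptide in Tris-HCl pH 7.5, NaCl, MgCl2, DTT. Reaction started with 280 μM ATP, run 1 h at 25 °C. ADP detected by Transcreener fluorescence polarization. IC50 and Ki(app) fitted by tight-binding algorithm.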

[2] = molecular target: intracellular GCN2 (phosphorylation of the GCN2 substrate eIF2α) (Homo sapiens, UniProt Q9P2K8); experiment: GCN2 cellular inhibition assay (AlphaScreen SureFire P-eIF2α Ser51, borrelidin-treated U2OS cells); format: cell-based; details: biomarker assay, phosphorylated eIF2α Ser51 in borrelidin-treated U2OS cells
Chain of intracellular GCN2 (phosphorylation of the GCN2 substrate eIF2α) (Q9P2K8 whole entry): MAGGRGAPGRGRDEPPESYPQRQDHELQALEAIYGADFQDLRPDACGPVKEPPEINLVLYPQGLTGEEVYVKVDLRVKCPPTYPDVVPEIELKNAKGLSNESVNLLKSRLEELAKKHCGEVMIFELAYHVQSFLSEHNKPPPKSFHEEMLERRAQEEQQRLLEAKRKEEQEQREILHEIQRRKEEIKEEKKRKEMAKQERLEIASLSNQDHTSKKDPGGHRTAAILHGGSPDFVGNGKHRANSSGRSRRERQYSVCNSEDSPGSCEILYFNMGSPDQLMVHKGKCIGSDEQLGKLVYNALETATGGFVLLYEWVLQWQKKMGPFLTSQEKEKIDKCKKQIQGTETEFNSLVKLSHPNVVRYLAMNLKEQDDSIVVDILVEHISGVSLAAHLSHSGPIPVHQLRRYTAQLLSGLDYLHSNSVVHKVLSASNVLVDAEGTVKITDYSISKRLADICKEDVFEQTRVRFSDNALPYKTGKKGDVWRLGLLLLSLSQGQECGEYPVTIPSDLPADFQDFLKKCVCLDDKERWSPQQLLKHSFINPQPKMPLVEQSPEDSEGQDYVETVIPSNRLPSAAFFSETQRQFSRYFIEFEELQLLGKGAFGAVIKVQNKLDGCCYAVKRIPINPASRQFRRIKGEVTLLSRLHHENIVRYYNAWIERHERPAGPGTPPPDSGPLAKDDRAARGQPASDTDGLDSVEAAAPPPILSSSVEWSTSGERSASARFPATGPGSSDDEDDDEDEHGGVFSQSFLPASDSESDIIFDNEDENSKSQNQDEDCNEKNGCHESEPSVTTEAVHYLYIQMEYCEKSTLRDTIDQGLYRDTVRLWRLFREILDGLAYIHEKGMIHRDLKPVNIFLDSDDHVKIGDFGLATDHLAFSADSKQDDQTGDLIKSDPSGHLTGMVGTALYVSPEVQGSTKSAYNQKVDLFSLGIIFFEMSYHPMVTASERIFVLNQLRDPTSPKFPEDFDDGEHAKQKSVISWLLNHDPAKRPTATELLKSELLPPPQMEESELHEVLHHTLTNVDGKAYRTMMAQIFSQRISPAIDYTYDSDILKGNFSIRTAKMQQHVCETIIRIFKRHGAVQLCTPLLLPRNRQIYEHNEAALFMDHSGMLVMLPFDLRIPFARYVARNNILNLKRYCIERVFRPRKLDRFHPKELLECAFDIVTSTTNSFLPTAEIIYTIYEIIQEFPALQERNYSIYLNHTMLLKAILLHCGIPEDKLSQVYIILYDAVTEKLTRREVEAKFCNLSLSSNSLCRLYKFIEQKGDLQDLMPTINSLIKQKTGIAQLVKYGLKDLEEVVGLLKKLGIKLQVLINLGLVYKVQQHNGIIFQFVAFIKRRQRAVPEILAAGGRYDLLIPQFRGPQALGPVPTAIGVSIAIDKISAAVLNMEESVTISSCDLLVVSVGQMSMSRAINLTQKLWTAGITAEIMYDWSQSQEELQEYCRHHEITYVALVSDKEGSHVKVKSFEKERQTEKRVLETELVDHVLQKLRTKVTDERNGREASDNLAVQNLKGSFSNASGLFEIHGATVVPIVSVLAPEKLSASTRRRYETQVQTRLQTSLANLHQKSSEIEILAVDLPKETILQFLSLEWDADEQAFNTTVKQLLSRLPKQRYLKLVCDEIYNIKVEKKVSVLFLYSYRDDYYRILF
Method in brief: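 Compound effect on GCN2 is gauged by eIF2α Ser51 phosphorylation in borrelidin-challenged U2OS cells (10 μM, 1 h). Top compound level is 40 μM final.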

[3] = Enzyme activity for compounds of Formula IV, Ki(app), 25° C.
[4] = compounds of Formula II, 4 nM GCN2 kinase

Chain of GCN2 kinase (Q9P2K8 whole entry): as above

Row | Compound | Ki [1, 3] [nM] | IC50 ([2]; compounds of Formula IV) [nM] | Ki [1, 4] [nM] | IC50 ([2]; compounds of Formula II) [nM] | IC50 ([1]; 4 nM GCN2 kinase) [nM]
1 | CC1C(CNS(C)(=O)=O)N(C2CC2)CCN1c1cc(-c2cnc3ccc(C(F)F)nn23)ncn1 (single isomer, unassigned) [II-479, N-((1-Cyclopropyl-4-(6-(6-(difluoromethyl)imidazo[1,2-b]pyridazin-3-yl)pyrimidin-4-yl)-3-methylpiperazin-2-yl)methyl)methanesulfonamide] | – | – | < 10 | < 500 | –
2 | NS(=O)(=O)N1CC2OCCN(c3cc(-c4cnc5ccc(C(F)F)nn45)ncn3)C2C1 (stereo not shown) [II-332, 4-(6-(6-(Difluoromethyl)imidazo[1,2-b]pyridazin-3-yl)pyrimidin-4-yl)hexahydropyrrolo[3,4-b][1,4]oxazine-6(2H)-sulfonamide] | – | – | 10 to 1000 | > 5000 | –
3 | CC1CN(c2cc(-c3cnc4ccc(C(F)F)nn34)ncn2)CC(CNS(C)(=O)=O)C1(F)F (stereo not shown) [II-45, N-((1-(6-(6-(Difluoromethyl)imidazo[1,2-b]pyridazin-3-yl)pyrimidin-4-yl)-4,4-difluoro-5-methylpiperidin-3-yl)methyl)methanesulfonamide] | – | – | < 10 | < 500 | –
4 | C[C@H]1CCCCN1c1cc(-c2cnc3ccc(C(F)F)nn23)ncn1 [II-323, (S)-6-(Difluoromethyl)-3-(6-(2-methylpiperidin-1-yl)pyrimidin-4-yl)imidazo[1,2-b]pyridazine] | – | – | 10 to 1000 | 500 to 5000 | –
5 | CN(C)C1CN(c2cc(-c3cnc4ccc(C(F)F)nn34)ncn2)CC(CNS(C)(=O)=O)C1(F)F (stereo not shown) [II-259, N-((1-(6-(6-(Difluoromethyl)imidazo[1,2-b]pyridazin-3-yl)pyrimidin-4-yl)-5-(dimethylamino)-4,4-difluoropiperidin-3-yl)methyl)methanesulfonamide] | – | – | < 10 | < 500 | –
6 | CC1C(CNS(C)(=O)=O)CC(F)(F)CN1c1cc(-c2cnc3ccc(C(F)F)nn23)ncn1 (stereo not shown) [II-329, N-((1-(6-(6-(Difluoromethyl)imidazo[1,2-b]pyridazin-3-yl)pyrimidin-4-yl)-5,5-difluoro-2-methylpiperidin-3-yl)methyl)methanesulfonamide] | – | – | < 10 | < 500 | –
7 | Cc1ncc(-c2cnc3ccc(C(F)F)nn23)cc1N1CCC12CCN(S(C)(=O)=O)CC2 [II-44, 6-(Difluoromethyl)-3-(6-methyl-5-(7-(methylsulfonyl)-1,7-diazaspiro[3.5]nonan-1-yl)pyridin-3-yl)imidazo[1,2-b]pyridazine] | – | – | 10 to 1000 | 500 to 5000 | –
8 | CC1C(NS(C)(=O)=O)CCCN1c1cc(-c2cnc3ccc(C(F)F)nn23)ncn1 (single isomer, unassigned) [II-377, N-[1-[6-[6-(Difluoromethyl)imidazo[1,2-b]pyridazin-3-yl]pyrimidin-4-yl]-2-methyl-3-piperidyl]methanesulfonamide] | – | – | 10 to 1000 | < 500 | –
9 | CC1CN(c2cc(-c3cnc4ccc(C(F)F)nn34)ncn2)CC(CNS(C)(=O)=O)O1 (stereo not shown) [II-32, N-((4-(6-(6-(Difluoromethyl)imidazo[1,2-b]pyridazin-3-yl)pyrimidin-4-yl)-6-methylmorpholin-2-yl)methyl)methanesulfonamide] | – | – | < 10 | < 500 | –
10 | CS(=O)(=O)N[C@@H]1CCCN(c2cc(-c3cnc4ccc(C(F)F)nn34)ncn2)C1 (single isomer, unassigned) [II-405] | – | – | 10 to 1000 | 500 to 5000 | –
11 | CNc1cc(-c2cnc3ccc(C(F)F)nn23)cc(N2CCC(F)(F)C(CNS(C)(=O)=O)C2)n1 (stereo not shown) [II-71, N-((1-(4-(6-(Difluoromethyl)imidazo[1,2-b]pyridazin-3-yl)-6-(methylamino)pyridin-2-yl)-4,4-difluoropiperidin-3-yl)methyl)methanesulfonamide] | – | – | < 10 | 500 to 5000 | –
12 | CC1CC(CNS(C)(=O)=O)C(C)N(c2cc(-c3cnc4ccc(C(F)F)nn34)ncn2)C1 (single isomer, unassigned) [II-546, N-((1-(6-(6-(Difluoromethyl)imidazo[1,2-b]pyridazin-3-yl)pyrimidin-4-yl)-2,5-dimethylpiperidin-3-yl)methyl)methanesulfonamide] | – | – | < 10 | < 500 | –
13 | NC(=O)[C@H]1CCCN(c2cc(-c3cnc4ccc(C(F)F)nn34)ccn2)C1 [II-143, (S′)-1-(4-(6-(Difluoromethyl)imidazo[1,2-b]pyridazin-3-yl)pyridin-2-yl)piperidine-3-carboxamide] | – | – | < 10 | < 500 | –
14 | CC(=O)N1CCN(c2cc(-c3cnc4ccc(C(F)F)nn34)ncn2)C(C)C1 (stereo not shown) [II-368, 1-(4-(6-(6-(Difluoromethyl)imidazo[1,2-b]pyridazin-3-yl)pyrimidin-4-yl)-3-methylpiperazin-1-yl)ethan-1-one] | – | – | 10 to 1000 | > 5000 | –
15 | COc1cc(-c2cnc3ccc(C(F)F)nn23)cc(N2CCCC(CNS(C)(=O)=O)C2)n1 (stereo not shown) [II-142, N-((1-(4-(6-(Difluoromethyl)imidazo[1,2-b]pyridazin-3-yl)-6-methoxypyridin-2-yl)piperidin-3-yl)methyl)methanesulfonamide] | – | – | < 10 | 500 to 5000 | –
16 | CN1CCN(c2cc(-c3cnc4ccc(C(F)F)nn34)ncn2)C[C@H]1C1(O)CC1 [II-459, (S)-1-(4-(6-(6-(Difluoromethyl)imidazo[1,2-b]pyridazin-3-yl)pyrimidin-4-yl)-1-methylpiperazin-2-yl)cyclopropan-1-ol] | – | – | > 1000 | > 5000 | –
17 | CS(C)(=O)=NC[C@@H]1CN(c2cc(-c3cnc4ccc(C(F)F)nn34)ncn2)CCO1 [II-10, [(2S)-4-[6-[6-(Difluoromethyl)imidazo[1,2-b]pyridazin-3-yl]pyrimidin-4-yl]morpholin-2-yl]methylimino-dimethyl-oxo-sulfane] | – | – | 10 to 1000 | > 5000 | –
18 | O=C1COC2(CN1)COCCN(c1cc(-c3cnc4ccc(C(F)F)nn34)ncn1)C2 (stereo not shown) [II-309, 11-(6-(6-(Difluoromethyl)imidazo[1,2-b]pyridazin-3-yl)pyrimidin-4-yl)-1,8-dioxa-4,11-diazaspiro[5.6]dodecan-3-one] | – | – | > 1000 | > 5000 | –
19 | CC1C(CNS(C)(=O)=O)C(F)(F)C(C)CN1c1cc(-c2cnc3ccc(C(F)F)nn23)ncn1 (single isomer, unassigned) [II-471, N-((1-(6-(6-(Difluoromethyl)imidazo[1,2-b]pyridazin-3-yl)pyrimidin-4-yl)-4,4-difluoro-2,5-dimethylpiperidin-3-yl)methyl)methanesulfonamide] | – | – | 10 to 1000 | > 5000 | –

Results, then the compound that gave them:

Row | Ki [1, 3] [nM] | IC50 ([2]; compounds of Formula IV) [nM] | Ki [1, 4] [nM] | IC50 ([2]; compounds of Formula II) [nM] | IC50 ([1]; 4 nM GCN2 kinase) [nM] | Compound
20 | 100 to 1000 | > 5000 | – | – | – | OCC1CCN(c2ccnc(-c3cnc4cnc(C(F)(F)F)cn34)n2)CC1 [IV-443, (1-(2-(6-(Trifluoromethyl)imidazo[1,2-a]pyrazin-3-yl)pyrimidin-4-yl)piperidin-4-yl)methanol]
21 | 100 to 1000 | > 5000 | – | – | – | NC(=O)c1cc(C2CCCN(c3ccnc(-c4cnc5cnc(C(F)F)cn45)n3)C2)n[nH]1 (stereo not shown) [IV-94, 3-(1-(2-(6-(Difluoromethyl)imidazo[1,2-a]pyrazin-3-yl)pyrimidin-4-yl)piperidin-3-yl)-1H-pyrazole-5-carboxamide]
22 | 100 to 1000 | > 5000 | – | – | – | O=C(C1CCCN(c2ccnc(-c3cnc4cnc(C(F)F)cn34)n2)C1)N1CCNCC1 (stereo not shown) [IV-139, (1-(2-(6-(Difluoromethyl)imidazo[1,2-a]pyrazin-3-yl)pyrimidin-4-yl)piperidin-3-yl)(piperazin-1-yl)methanone]
23 | < 10 | 500 to 5000 | – | – | – | Cc1[nH]ncc1C1CCCN(c2ccnc(-c3cnc4cnc(C(F)(F)F)cn34)n2)C1 (stereo not shown) [IV-452, 3-(4-(3-(5-Methyl-1H-pyrazol-4-yl)piperidin-1-yl)pyrimidin-2-yl)-6-(trifluoromethyl)imidazo[1,2-a]pyrazine]
24 | 10 to 100 | 500 to 5000 | – | – | – | NC(=O)C1CN(c2ccnc(-c3cnc4cnc(C(F)(F)F)cn34)n2)CC(F)(F)C1 (stereo not shown) [IV-582, 5,5-Difluoro-1-(2-(6-(trifluoromethyl)imidazo[1,2-a]pyrazin-3-yl)pyrimidin-4-yl)piperidine-3-carboxamide]
25 | 10 to 100 | 500 to 5000 | – | – | – | CC1CN(c2ccnc(-c3cnc4cnc(C(F)(F)F)cn34)n2)CC(c2cn[nH]c2)O1 (single isomer, unassigned) [IV-15, 2-Methyl-6-(1H-pyrazol-4-yl)-4-(2-(6-(trifluoromethyl)imidazo[1,2-a]pyrazin-3-yl)pyrimidin-4-yl)morpholine]
26 | – | < 500 | – | – | 10 to 1000 | Cc1n[nH]cc1[C@H]1C[C@@H](C)CN(c2nccc(-c3cnc4cnc(C(F)(F)F)cn34)n2)C1 [IV-758, 3-(2-((3R,5R)-3-methyl-5-(3-methyl-1H-pyrazol-4-yl)piperidin-1-yl)pyrimidin-4-yl)-6-(trifluoromethyl)imidazo[1,2-a]pyrazine]
27 | < 10 | < 500 | – | – | – | Brc1cn2c(-c3nccc(N4CCCC(c5c[nH]cn5)C4)n3)cnc2cn1 (stereo not shown) [IV-363, 3-(4-(3-(1H-Imidazol-4-yl)piperidin-1-yl)pyrimidin-2-yl)-6-bromoimidazo[1,2-a]pyrazine]
28 | – | < 500 | – | – | 10 to 1000 | C[C@@H]1C[C@@H](c2cn[nH]c2)CN(c2ccnc(-c3cnc4cnc(C(F)(F)F)cn34)n2)C1 [IV-769, 3-(4-((3R,5S)-3-methyl-5-(1H-pyrazol-4-yl)piperidin-1-yl)pyrimidin-2-yl)-6-(trifluoromethyl)imidazo[1,2-a]pyrazine]
29 | 10 to 100 | 500 to 5000 | – | – | – | NC(=O)C1CCCN(c2cccc(-c3cnc4cnc(C(F)F)cn34)n2)C1 (stereo not shown) [IV-55, 1-(6-(6-(Difluoromethyl)imidazo[1,2-a]pyrazin-3-yl)pyridin-2-yl)piperidine-3-carboxamide]
